Experimental data published in publication PMC3329717 (Journal of Medicinal Chemistry, 2012).

Legend:
[1] = system: WEEV replicon
[2] = system: WEEV replicon; test: microbe, parasite or virus in culture; details: Western equine encephalitis virus, BSR-T7, read-out: IC50, inhibition of luciferase expression in the WEEV replicon assay
[3] = system: WEEV; format: cell-based, western equine encephalitis virus
[4] = system: NSV; format: cell-based, neuroadapted Sindbis virus
[5] = Mouse liver microsome; details: Balb-C, liver microsomes, pH 7.5
[6] = Parallel Artificial Membrane Permeability Assay; details: PAMPA
[7] = system: WEEV; format: cell-based, western equine encephalitis virus; remark: listed apart in the source
[8] = system: NSV; format: cell-based, neuroadapted Sindbis virus; remark: listed apart in the source
[9] = system: NSV; design: species or system mice; details: mouse, in vivo
[10] = system: NSV; design: species or system mice; details: mouse, in vivo; remark: listed apart in the source
[11] = system: NSV; design: species or system mice; details: mouse, in vivo; remark: listed apart in the source
[12] = system: vaccine strain of Venezuelan equine encephalitis virus (VEEV); details: mouse, in vivo; cited from earlier work
[13] = system: wild-type VEEV; details: in vivo; cited from earlier work

| Compound | CC50/IC50 (therapeutic index) [1] | IC50 [2] [µM] | also measured |
| --- | --- | --- | --- |
| O=C(NCc1ccccc1)C1CCN(C(=O)c2cc3sccc3n2Cc2ccc(F)cc2)CC1 [Compound 5a, N-benzyl-1-(4-(4-fluorobenzyl)-4H-thieno[3,2-b]pyrrole-5-carbonyl)piperidine-4-carboxamide] | >3.9 | 25.4 ± 7.3 |  |
| O=C(NCc1ccccc1)C1CCN(C(=O)c2cc3sccc3n2Cc2ccc(Cl)cc2)CC1 [Compound 5b, N-benzyl-1-(4-(4-chlorobenzyl)-4H-thieno[3,2-b]pyrrole-5-carbonyl)piperidine-4-carboxamide] | >9.9 | 10.1 ± 2.6 | WEEV titers (virion production, plaque assay) [3]: significantly reduced; NSV titers (virion production, plaque assay) [4]: significantly reduced; half-life at 1 µM [5]: 1.7 ± 1.7 min; Papp [6]: 251 ×10⁻⁶ cm/s |
| C[C@H](NC(=O)C1CCN(C(=O)c2cc3sccc3n2Cc2ccc(F)cc2)CC1)c1ccccc1 [Compound 5c, (S)-1-(4-(4-fluorobenzyl)-4H-thieno[3,2-b]pyrrole-5-carbonyl)-N-(1-phenylethyl)piperidine-4-carboxamide] |  | > 100 |  |
| C[C@@H](NC(=O)C1CCN(C(=O)c2cc3sccc3n2Cc2ccc(F)cc2)CC1)c1ccccc1 [Compound 5d, (R)-1-(4-(4-fluorobenzyl)-4H-thieno[3,2-b]pyrrole-5-carbonyl)-N-(1-phenylethyl)piperidine-4-carboxamide] | 11 | 8.3 ± 1.3 |  |
| C[C@H](c1ccc(F)cc1)n1c(C(=O)N2CCC(C(=O)NCc3ccccc3)CC2)cc2sccc21 [Compound 5e, (R)-N-benzyl-1-(4-(1-(4-fluorophenyl)ethyl)-4H-thieno[3,2-b]pyrrole-5-carbonyl)piperidine-4-carboxamide] | >5.4 | 18.4 ± 4.7 |  |
| C[C@@H](c1ccc(F)cc1)n1c(C(=O)N2CCC(C(=O)NCc3ccccc3)CC2)cc2sccc21 [Compound 5f, (S)-N-benzyl-1-(4-(1-(4-fluorophenyl)ethyl)-4H-thieno[3,2-b]pyrrole-5-carbonyl)piperidine-4-carboxamide] |  | > 100 |  |
| O=C(NCc1ccccc1)C1CCN(C(=O)c2cc3ccccc3n2Cc2ccc(F)cc2)CC1 [Compound 9a, N-benzyl-1-(1-(4-fluorobenzyl)-1H-indole-2-carbonyl)piperidine-4-carboxamide] | >6.7 | 14.8 ± 5.8 |  |
| O=C(NCc1ccccc1)C1CCN(C(=O)c2cc3ccccc3n2Cc2ccc(Cl)cc2)CC1 [Compound 9b, N-benzyl-1-(1-(4-chlorobenzyl)-1H-indole-2-carbonyl)piperidine-4-carboxamide] | >6.5 | 15.5 ± 5.6 | WEEV titers (virion production, plaque assay) [3]: significantly reduced; NSV titers (virion production, plaque assay) [4]: significantly reduced; half-life at 1 µM [5]: 7.3 ± 3.9 min |
| O=C(NCc1ccccc1)C1CCCN(C(=O)c2cc3ccccc3n2Cc2ccc(Cl)cc2)C1 (stereo not drawn) [Compound 9c, N-benzyl-1-(1-(4-chlorobenzyl)-1H-indole-2-carbonyl)piperidine-3-carboxamide] | >3.3 | 30.6 ± 7.3 |  |
| O=C(Nc1ccccc1)C1CCN(C(=O)c2cc3ccccc3n2Cc2ccc(Cl)cc2)CC1 [Compound 9d, 1-(1-(4-chlorobenzyl)-1H-indole-2-carbonyl)-N-phenylpiperidine-4-carboxamide] |  | > 50 |  |
| O=C(NCCc1ccccc1)C1CCN(C(=O)c2cc3ccccc3n2Cc2ccc(Cl)cc2)CC1 [Compound 9e, 1-(1-(4-chlorobenzyl)-1H-indole-2-carbonyl)-N-phenethylpiperidine-4-carboxamide] | 4.1 | 15.2 ± 9.3 |  |
| Cc1ccc(CCNC(=O)C2CCN(C(=O)c3cc4ccccc4n3Cc3ccc(Cl)cc3)CC2)cc1 [Compound 9f, 1-(1-(4-chlorobenzyl)-1H-indole-2-carbonyl)-N-(4-methylphenethyl)piperidine-4-carboxamide] | 14 | 5.5 ± 2.2 |  |
| C[C@H](NC(=O)C1CCN(C(=O)c2cc3ccccc3n2Cc2ccc(Cl)cc2)CC1)c1ccccc1 [Compound 9g, (S)-1-(1-(4-chlorobenzyl)-1H-indole-2-carbonyl)-N-(1-phenylethyl)piperidine-4-carboxamide] |  | > 100 | Increase in cell viability after WEEV infection (reduction in CPE) [7]: unable to rescue virus-induced CPE; Increase in cell viability after NSV infection (reduction in CPE) [8]: unable to rescue virus-induced CPE; WEEV titers (virion production, plaque assay) [3]: inactive; NSV titers (virion production, plaque assay) [4]: inactive |
| C[C@@H](NC(=O)C1CCN(C(=O)c2cc3ccccc3n2Cc2ccc(Cl)cc2)CC1)c1ccccc1 [Compound 9h, (R)-1-(1-(4-chlorobenzyl)-1H-indole-2-carbonyl)-N-(1-phenylethyl)piperidine-4-carboxamide] | 14 | 6.5 ± 1.5 | WEEV titers (virion production, plaque assay) [3]: significantly reduced; NSV titers (virion production, plaque assay) [4]: significantly reduced; Development of severe hind limb paralysis [9]: conferred benefit against the development of severe hind limb paralysis; Pilot survival assays, dose comparison [9]: the higher concentration was more effective; Survival after lethal NSV infection [9]: significantly protected from lethal NSV infection; Viral titers in brain [10]: viral titers were lower; Viral titers in spinal cord [10]: A similar extent of viral inhibition was also observed; Neuronal injury in hippocampus (proportion of fluorojade-positive neurons) [11]: reduced neuronal injury; half-life at 1 µM [5]: 31 ± 7.1 min |
| COc1ccc(CNC(=O)C2CCN(C(=O)c3cc4ccccc4n3Cc3ccc(Cl)cc3)CC2)cc1 [Compound 9i, 1-(1-(4-chlorobenzyl)-1H-indole-2-carbonyl)-N-(4-methoxybenzyl)piperidine-4-carboxamide] |  | > 50 |  |
| O=C(NCc1cccc(Cl)c1)C1CCN(C(=O)c2cc3ccccc3n2Cc2ccc(Cl)cc2)CC1 [Compound 9j, N-(3-chlorobenzyl)-1-(1-(4-chlorobenzyl)-1H-indole-2-carbonyl)piperidine-4-carboxamide] | >6.5 | 15.3 ± 9 |  |
| O=C(c1cc2ccccc2n1Cc1ccc(Cl)cc1)N1CCC(C(=O)N2CCCCC2)CC1 [Compound 9k, (1-(4-chlorobenzyl)-1H-indol-2-yl)(4-(piperidine-1-carbonyl)piperidin-1-yl)methanone] | 5.6 | 9.2 ± 2.8 |  |
| O=C(NCc1ccncc1)C1CCN(C(=O)c2cc3ccccc3n2Cc2ccc(Cl)cc2)CC1 [Compound 9l, 1-(1-(4-chlorobenzyl)-1H-indole-2-carbonyl)-N-(pyridin-4-ylmethyl)piperidine-4-carboxamide] | >14 | 6.8 ± 1.7 |  |
| O=C(NCc1cccnc1)C1CCN(C(=O)c2cc3ccccc3n2Cc2ccc(Cl)cc2)CC1 [Compound 9m, 1-(1-(4-chlorobenzyl)-1H-indole-2-carbonyl)-N-(pyridin-3-ylmethyl)piperidine-4-carboxamide] | >8.7 | 11.4 ± 0.4 |  |
| NC(=O)c1ncn([C@@H]2O[C@H](CO)[C@@H](O)[C@H]2O)n1 [Ribavirin, reference compound] |  | 16 |  |
| (−)-carbodine |  |  | Disease outcome [12]: improved outcome; Lowering of peak CNS viral titers [12]: half-log; Benefit after wild-type VEEV challenge [13]: no benefit |
